In publication PMC7594088:

Experiment: ring-closing metathesis (C=C bond) of side-chain olefins, second-generation Grubbs catalyst 20 mol %, under argon, 2 h
Conditions: CH2Cl2, 20.0 mM, 25.0 °C

Compound: COC(=O)C1(NC(=O)[C@H](CC(C)C)NC(=O)[C@H](CC(C)C)NC(=O)[C@@H]2COCCCC=CC[C@]3(CCCN3C(=O)OCc3ccccc3)C(=O)N[C@@H](CC(C)C)C(=O)N[C@@H](CC(C)C)C(=O)N2)CCCC1
- ring closure, isolated yield (from C=CCCCOC[C@H](NC(=O)[C@H](CC(C)C)NC(=O)[C@H](CC(C)C)NC(=O)[C@]1(CC=C)CCCN1C(=O)OCc1ccccc1)C(=O)N[C@@H](CC(C)C)C(=O)N[C@@H](CC(C)C)C(=O)NC1(C(=O)OC)CCCC1, 18-membered ring, 2.0 h): 96%

Compound: COC(=O)C1(NC(=O)[C@H](CC(C)C)NC(=O)[C@H](CC(C)C)NC(=O)C2(NC(=O)[C@H](CC(C)C)NC(=O)[C@H](CC(C)C)NC(=O)[C@@H]3COCCCC=CCO[C@H]4C[C@@H](C(=O)N3)N(C(=O)OC(C)(C)C)C4)CCCC2)CCCC1
- ring closure, isolated yield (from C=CCCCOC[C@H](NC(=O)[C@@H]1C[C@H](OCC=C)CN1C(=O)OC(C)(C)C)C(=O)N[C@@H](CC(C)C)C(=O)N[C@@H](CC(C)C)C(=O)NC1(C(=O)N[C@@H](CC(C)C)C(=O)N[C@@H](CC(C)C)C(=O)NC2(C(=O)OC)CCCC2)CCCC1, 15-membered ring, 2.0 h): 93%

Compound: COC(=O)[C@@H]1COCC=CCO[C@H]2C[C@@H](C(=O)N1)N(C(=O)OC(C)(C)C)C2 [Boc-cis-Hyp(OAllyl)-Ser(OAllyl)-OMe (cis-4-hydroxy-L-Pro)]
- ring closure, isolated yield (from C=CCOC[C@H](NC(=O)[C@@H]1C[C@H](OCC=C)CN1C(=O)OC(C)(C)C)C(=O)OC, 13-membered ring, 2.0 h): 55%

Compound: COC(=O)[C@@H]1COCC=CCO[C@@H]2C[C@@H](C(=O)N1)N(C(=O)OC(C)(C)C)C2
- ring closure, isolated yield (from C=CCOC[C@H](NC(=O)[C@@H]1C[C@@H](OCC=C)CN1C(=O)OC(C)(C)C)C(=O)OC, 13-membered ring): 0%

Compound: COC(=O)C1(NC(=O)[C@H](CC(C)C)NC(=O)[C@H](CC(C)C)NC(=O)C2(NC(=O)[C@H](CC(C)C)NC(=O)[C@H](CC(C)C)NC(=O)[C@@H]3COCC=CCO[C@H]4C[C@@H](C(=O)N3)N(C(=O)OC(C)(C)C)C4)CCCC2)CCCC1
- ring closure, isolated yield (from C=CCOC[C@H](NC(=O)[C@@H]1C[C@H](OCC=C)CN1C(=O)OC(C)(C)C)C(=O)N[C@@H](CC(C)C)C(=O)N[C@@H](CC(C)C)C(=O)NC1(C(=O)N[C@@H](CC(C)C)C(=O)N[C@@H](CC(C)C)C(=O)NC2(C(=O)OC)CCCC2)CCCC1, 13-membered ring): 0%
